Laboratory results from paper PMC3537848 (Cancer research, 2012).
Positions count from the first letter of the chain named. pIC50: −log10 of the molar value.

Key:
[1] = target: T1, Retinoid X receptor-α (RXRα) (Homo sapiens, UniProt P19793, R316E); test: Gal4 luciferase reporter in CV-1 cells; type: cell-based
T1 sequence (P19793 198-462 R316E): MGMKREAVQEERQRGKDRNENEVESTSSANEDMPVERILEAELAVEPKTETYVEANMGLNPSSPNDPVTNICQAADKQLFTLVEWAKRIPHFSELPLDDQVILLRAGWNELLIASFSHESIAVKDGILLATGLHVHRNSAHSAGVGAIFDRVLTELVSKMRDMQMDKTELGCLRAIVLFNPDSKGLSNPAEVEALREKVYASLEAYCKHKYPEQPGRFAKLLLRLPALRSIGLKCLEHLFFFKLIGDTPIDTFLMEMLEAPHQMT

[2] = target: T2, Retinoid X receptor-α (RXRα) (Homo sapiens, UniProt P19793); test: Gal4-RXRα-LBD luciferase reporter in CV-1 cells; type: cell-based
T2 sequence (P19793 198-462): T1 sequence (P19793 198-462 R316E) with E119R

[3] = target: T1, Retinoid X receptor-α (RXRα); test: Gal4 luciferase reporter in CV-1 cells, antagonism of CD3254; type: cell-based
[4] = target: T3, Retinoid X receptor-α (RXRα) (Homo sapiens, UniProt P19793); test: radioligand competition with [3H]-9-cis-RA; type: binding
T3 sequence (P19793 223-462 limits assumed): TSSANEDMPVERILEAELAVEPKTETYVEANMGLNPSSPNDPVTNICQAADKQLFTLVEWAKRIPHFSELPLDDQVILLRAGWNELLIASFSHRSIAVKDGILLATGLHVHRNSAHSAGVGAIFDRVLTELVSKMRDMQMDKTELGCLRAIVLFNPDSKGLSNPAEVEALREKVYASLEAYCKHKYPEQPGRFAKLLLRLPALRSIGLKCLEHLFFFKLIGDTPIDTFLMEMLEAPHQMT

pIC50 [4] | Compound | Gal4 luciferase reporter in CV-1 cells (agonist) [1] | Gal4-RXRα-LBD luciferase reporter in CV-1 cells (agonist) [2] | Gal4 luciferase reporter in CV-1 cells, antagonism of CD3254 [3]
 | Cc1cc2c(cc1-c1cc(/C=C/C(=O)O)ccc1O)C(C)(C)CCC2(C)C [CD3254] | CD3254 could still activate the RXRα/R316E mutant | CD3254 strongly induced Gal4-RXRα/LBD activity, which was comparable to that induced by 9-cis-RA | 
5.02 | CC(C)=CCC/C(C)=C/Cc1c(O)c(O)cc2c(=O)c3c(O)c(CC=C(C)C)c(O)cc3oc12 [CF31, 1,3,6,7-tetrahydroxy-2-(3-methyl-2-butenyl)-5-(3,7-dimethyl-2,6-octadienyl)xanthone] |  |  | CD3254-induced reporter activity was potently inhibited by CF31 in a dose dependent manner (Fig. 2C)
